Source: PMC8471306, “Chemical Changes of Hydroperoxy-, Epoxy-, Keto- and Hydroxy-Model Lipids under Simulated Gastric Conditions” (Foods, 2021)
Where “and” joins values, the source holds several entries; their conditions need not be identical. Identical values can stand only once. Entries after “also recorded” stand apart in the source; their conditions may differ. Values belong to the compound of their own block, whether it stands above or below them.

How the values were obtained:
[1] = In vitro simulated gastric digestion of model lipid emulsions in SGF, quantitation by GC-FID; type: in vitro ADME
Procedure: Emulsions of model lipid compounds were prepared in a simulated gastric fluid (SGF) formulated as described in the United States Pharmacopeia. SGF contained 3.2% w/v pepsin in 0.03 M NaCl and 0.1 M HCl (pH 1.2). Different sample solutions of model lipid compounds in SGF were prepared and methyl C21:0 was added as an internal standard (IS) for quantitative purposes. Homogenization was performed in an Omnimixer (Sorvall, Newton, PA, USA) at 10,000 rpm for 5 min at 1-min intervals, as described elsewhere. […] Samples of 1, 2, 3 and 4 mL (~16 μmol mL^−1 of each compound) were used. • - Two methyl 9,10-epoxysteatate emulsions, i.e., 5 and 15 mg mL^−1, both with 10 mg mL^−1 of the IS, in SGF. Samples of 1, 2, 3 and 4 mL (16 and 46 μmol mL^−1) were used. • - Three methyl linoleate hydroperoxides emulsions, i.e., 5, 7.5 and 10 mg mL^−1, with 1, 1.5 and 2 mg mL^−1 of the IS, respectively. Additional methyl hydroperoxides emulsions at the same concentrations were prepared adjusting the pH to 3.0 and 6.6 with 1 M NaHCO3. Samples of 4 mL (15.3, 23.0 and 30.6 μmol mL^−1) were used.
Gastric digestion was simulated using a classical in vitro model. Emulsions of lipid model compounds prepared as described in Section 2.3. were used for digestion assays immediately after preparation. Triplicate emulsions were incubated in a shaking water bath for 3 h at 37 °C/100 rpm.
Lipids were thoroughly extracted with 1:1 hexane:diethyl ether after vigorous shaking in a vortex and centrifugation at 2000 rpm. Hexane and diethyl ether have been previously used for lipid extraction of oil-in-water emulsions. The extraction procedure was repeated three times and the organic extracts were pooled and washed with distilled water. After filtration through anhydrous sodium sulfate, the solvent was evaporated in a rotatory evaporator under reduced pressure at room temperature and the extracted lipids were dried using a stream of nitrogen.
Initial and digested samples were analyzed by gas-liquid chromatography using an HP 6890 Series chromatograph (Hewlett-Packard, Avondale, PA, USA) equipped with a split-splitless injector operating in the split mode with a 40:1 split ratio at 250 °C, a J&W DB-Wax fused-silica capillary column, 60 m × 0.25 mm I.D., film thickness 0.25 μm (J&W Scientific, Folsom, CA, USA) and a flame ionization detector that was used at 250 °C. The analyses were run using hydrogen as carrier gas at 1 mL min^−1 and under isothermal conditions using 230 °C for 25 min. Injections were carried out automatically using a 6890 Series autosampler (Agilent Technologies, Karlsruhe, Germany). A volume of 1 μL of sample dissolved in diethyl ether (~5 mg mL^−1) was analyzed.

[2] = rat, in vivo; cited from earlier work
[3] = equimolar mixture, 16 μmol mL^−1 each, sample volume 1 mL, SGF pH 1.2, 3 h 37 °C
[4] = equimolar mixture, 16 μmol mL^−1 each, sample volume 2 mL, SGF pH 1.2, 3 h 37 °C
[5] = equimolar mixture, 16 μmol mL^−1 each, sample volume 3 mL, SGF pH 1.2, 3 h 37 °C
[6] = equimolar mixture, 16 μmol mL^−1 each, sample volume 4 mL, SGF pH 1.2, 3 h 37 °C
[7] = tested alone, initial 15.79 μmol mL^−1, sample volume 1 mL, SGF pH 1.2
[8] = tested alone, initial 15.79 μmol mL^−1, sample volume 2 mL, SGF pH 1.2
[9] = tested alone, initial 15.79 μmol mL^−1, sample volume 3 mL, SGF pH 1.2
[10] = tested alone, initial 15.79 μmol mL^−1, sample volume 4 mL, SGF pH 1.2
[11] = tested alone, initial 46.03 μmol mL^−1, sample volume 1 mL, SGF pH 1.2
[12] = tested alone, initial 46.03 μmol mL^−1, sample volume 2 mL, SGF pH 1.2
[13] = tested alone, initial 46.03 μmol mL^−1, sample volume 3 mL, SGF pH 1.2
[14] = tested alone, initial 46.03 μmol mL^−1, sample volume 4 mL, SGF pH 1.2

Final Concentration [1, 3]: 15.92 ± 0.40 c μmol mL^−1 | Final Concentration [1, 4]: 15.45 ± 1.03 c μmol mL^−1 | Final Concentration [1, 5]: 16.13 ± 0.39 c μmol mL^−1 | Final Concentration [1, 6]: 15.51 ± 1.13 c μmol mL^−1
Compound: CCCCCCC(O)CCCCCCCCCCC(=O)OC (centres unmarked) [methyl 12-hydroxystearate]

Compound: linoleic acid hydroperoxides
Share decomposed to a variety of compounds in the stomach [2]: about 70%

Final Concentration [1, 3]: 16.11 ± 0.21 c μmol mL^−1 | Final Concentration [1, 4]: 15.80 ± 0.37 c μmol mL^−1 | Final Concentration [1, 5]: 15.88 ± 0.73 c μmol mL^−1 | Final Concentration [1, 6]: 16.15 ± 0.58 c μmol mL^−1
Compound: CCCCCCC(=O)CCCCCCCCCCC(=O)OC [methyl 12-oxostearate]
Change after simulated gastric digestion (in words) ([1]; equimolar mixture, 16 μmol mL^−1 each, 1-4 mL, SGF pH 1.2): remained unaltered; also recorded: remained at the starting levels

Losses after in vitro gastric digestion, range over all samples ([1]; all concentrations and sample volumes tested, SGF pH 1.2): 17.8–58.8% | Final Concentration [1, 3]: 7.52 ± 0.73 a μmol mL^−1 | Loss % after Digestion [1, 3]: 52.7 ± 4.6 B % | Final Concentration [1, 4]: 7.79 ± 0.65 ab μmol mL^−1 | Loss % after Digestion [1, 4]: 51.3 ± 4.0 AB % | Final Concentration [1, 5]: 8.89 ± 0.43 b μmol mL^−1 | Loss % after Digestion [1, 5]: 44.4 ± 2.7 A % | Final Concentration [1, 6]: 9.55 ± 0.40 b μmol mL^−1 | Loss % after Digestion [1, 6]: 40.3 ± 2.5 A % | Final [9,10-Epoxystearate] [1, 7]: 6.50 ± 1.07 a μmol mL^−1 | Loss % after Digestion [1, 7]: 58.8 ± 6.8 D % | Final [9,10-Epoxystearate] [1, 8]: 7.20 ± 0.80 ab μmol mL^−1 | Loss % after Digestion [1, 8]: 54.4 ± 5.0 CD % | Final [9,10-Epoxystearate] [1, 9]: 8.00 ± 0.48 ab μmol mL^−1 | Loss % after Digestion [1, 9]: 49.3 ± 3.0 CD % | Final [9,10-Epoxystearate] [1, 10]: 8.97 ± 0.60 b μmol mL^−1 | Loss % after Digestion [1, 10]: 43.2 ± 3.8 BC % | Final [9,10-Epoxystearate] [1, 11]: 26.16 ± 2.24 a μmol mL^−1 | Loss % after Digestion [1, 11]: 43.2% and 43.2 ± 4.9 BC % | Final [9,10-Epoxystearate] [1, 12]: 30.53 ± 1.48 a μmol mL^−1 | Loss % after Digestion [1, 12]: 33.7 ± 3.2 B % | Final [9,10-Epoxystearate] [1, 13]: 35.06 ± 0.81 b μmol mL^−1 | Loss % after Digestion [1, 13]: 23.8 ± 1.8 A % | Final [9,10-Epoxystearate] [1, 14]: 37.82 ± 1.96 b μmol mL^−1 | Loss % after Digestion [1, 14]: 17.8% and 17.8 ± 4.3 A %
Compound: CCCCCCCCC1OC1CCCCCCCC(=O)OC (stereo not drawn) [methyl 9,10-epoxystearate, Methyl trans-9,10-epoxystearate]
